# Experimental data from patent USRE34630E, “Substituted isoquinolines and methods of using same” (Euroceltique, S.A., priority 1992, dated 1994).
# Where two headings read alike, the source gives them in different places.
# Assays:
# [1] = tested on: human neutrophils (PAF-induced bead adhesion); test: PAF-induced adhesion of human neutrophils to latex beads; assay type: cell-based; conditions: Neutrophil, albumin-coated latex beads
# Procedure: (§1) The cellular responses studied include (1) PAF-induced release of preloaded, radiolabeled serotonin from rabbit platelets, (2) PAF-induced degranulation (release of myeloperoxidase) from purified human nuetrophils and (3) PAF-induced adhesion of human neutrophils to latex beads. Each putative antagonist was tested at 30 μM for its effect on each response. Selected compounds were tested in a concentration-response fashion.
# Latex bead suspension (0.6 ml; 10% aqueous suspension; particle diameter=1u) is pipeted into a 1.5 ml eppendorf centrifuge tube. The beads are pelleted by centrifugation, the supernatant is discarded and the beads are washed 2 times with 1 ml 0.9% saline. To the pelleted beads is added 0.5 ml 20 mg/ml human serum albunim (HSA) in Krebs-Ringer buffer.
# Allow bed-albumin mixture to sit at room temperature for 10 minutes, centrifuge for 1 minute and remove the supernatant, and wash albumin-coated beads 3 times with saline. Resuspend the beads in 1 ml of Krebs-Ringer.
# Human neutrophils are prepared as described for the neutrophil degranulation assay and 10^7 cells are added to 0.3 ml of Krebs-Ringerin the presence and absence of PAF and putative antagonist and are incubated at 37° for an appropriate period of time.
# The albumin-coated beads are then added in 0.05 ml to give a final bead concentration of 1% v/v, resulting in a bead to neutrophil ratio of 100:1. The tubes containing cells and beads are then placed in an agitating water bath at 37° C. and 120 oscillation per minute for 10 minutes. The reaction is stopped by adding an equal volume of 2.5% glutaraldehyde in saline. The reaction tubes are allowed to stand at room temperature for 30 minutes. The cells are then washed 3 times (with centrifugation at 1000 rpm for 5 minutes) with saline to remove the unadhered latex beads and resuspended in 0.3 ml saline.
# Wet mounts are prepared and adherence is examined by light microscopy at 400x. […] Activity of the antagonists is expressed as the percent inhibition of PAF-induced adherence.
# [2] = tested on: rabbit platelets (PAF-induced serotonin release); test: PAF-induced release of tritiated serotonin from rabbit platelets; assay type: cell-based, rabbit (New Zealand White); conditions: Oryctolagus cuniculus, Platelet; for inhibition at 30 µM: read-out: Platelet Serotonin Release % Inhibition at 30 uM, 30 uM; for IC50: read-out: Platelet Serotonin Release I50
# Procedure: as §1
# Blood is collected from the central ear artery of New Zealand White rabbits into a 1:7 volume of acid citrate dextrose. The blood is centrifuged at 1100 rpm for 20 minutes. The isolated platelet rich plasma (PRP) is then incubated at 37° C. for 30 minutes with 1 μCi^3 H-serotonin binoxalate per ml PRP. Labeled platelets are pelleted by centrifugation at 2800 rpm for 20 minutes. The platelets are then washed in Tyrodes gel buffer without calcium in the presence of 0.1 mM EGTA and again pelleted at 2800 rpm for 20 minutes. This wash process is repeated. The washed platelet pellet is resuspended in Tyrodes gel buffer without calcium and adjusted to a concentration of 1.25×10^9 platelets/ml, as determined from a standard curve of absorbance at 530 num vs platelet concentration.
# Polystyrene reaction tubes containing various dilutions of PAF (for standard curve determination) or a single concentration of PAF with and without the subject antagonist in a 0.45 ml volume of Tyrodes gel buffer with calcium each receive a 0.05 ml aliquot of the paltelet preparation. After a 90 second incubation period at room temperature, the reaction is stopped by the addition of 0.02 ml of 9.25 % formaldehyde. The platelets are then pelleted by centrifugation at 2800 rpm for 15 minutes at 4° C.
# Aliquots (0.1 ml) of the supernatants are added to 3 ml liquid scintillation fluid in polypropylene vials. The samples are then counted for radioactivity in a liquid scintillation counter. The platelets in one set of reaction tubes containing only buffer and labeled platelets are lysed using 0.01 ml 10% Triton TX, and the total reactivity is determined by liquid scintillation counting. The determined dpm represent the total radioactivity in the labelled platelets. The results for each determination are reported as the percentage release of the total radioactivity in the sample. The extent of PAF antagonist activity is expressed as the percent inhibition of ^3 H-serotonin release compared to that amount released by PAF alone.
# [3] = tested on: human neutrophils (PAF-induced degranulation); test: PAF-induced degranulation (myeloperoxidase release) of human neutrophils; assay type: cell-based; conditions: Neutrophil
# Procedure: as §1
# Neutrophils are isolated from human venous blood via a two-step sedimentation procedure, and contaminating erythrocytes are selectively lysed. The neutrophils were preincubated in 0.25% Hanks buffer containing bovine serum albumin (BSA) with 5 ug Cytochalasin B/ ml cells for 5 minutes at 37° C. Neutrophils (4×10^6) are added to stimuli (PAF or buffer control) in the presence and absence of antagonist in Krebs-Ringer buffer to a final volume of 1.0 ml, and incubated at 37° C. for appropriate periods of time. At the end of the reaction period the neutrophils are pelleted by centrifugation at 3000 rpm for 5 minutes at 4° C.
# Aliquots (0.2 ml) of the supernatants are added to polysyrene tubes to which are added the following: 0.6 ml)>25% Hanks BSA, 0.5 ml MPO buffer (0.2 M NaPO4, pH 6.2) and to start the color reaction 0.2 ml of a 1:1 v/v 0.05% H2 O2 :1.25 mg/ml dimethoxybenzidine (DMB). The reaction is allowed to run at room temperature for 15 minutes and is stopped by the addition of 0.05 ml 2% sodium azide. The developed color is quantitated in a spectrophotometer at 460 nm. The amount of myeloperoxidase (MPO) released by PAF stimulation can thus be determined. In order to determine the total amount of MPO in the cells an unstimulated control tube of neutrophils is lysed using 0.01 ml 10% Triton TX and the total MPO is determined via the color reaction and spectrophotometer reading. The activity of a given concentration of PAF is expressed as the percentage of the total MPO released. The activity of antagonists at a given concentration is expressed as a percentage of inhibition of PAF-induced MPO released at a single concentration of PAF.
# [4] = Stability of free base solution on exposure to air (tlc); assay type: physicochemical; conditions: 1 h exposure to air
# Procedure: 1-(3,4-Dimethoxybenzyl)-6-methyl-3,4-dihydroisoquinoline (D2). Amide D1 (24.7 g, 0.079 mol) and 850 ml of tetrachloroethane was distilled to remove 50 ml of solvent. This solution was added to a solution of 90 g (0.63 mol) of P2 O5 in HMDSO which was heated at 115°. The reaction mixture was heated at 155°-170° for 5 h at which time the reaction appeared complete by tlc. To the cooled reaction mixture was added over 1 h a solution of 100 g of NaOH in 1 l of water under nitrogen with stirring. The organic layer was separated and filtered through a pad of MgSO4. One-half of the tetrachloroethane solution was partially evaporated and […] hydrochloric acid (25 ml) wa added. The resulting mixture was evaporated to dryness. The residue was twice treated with EtOH (100 ml) and evaporated to dryness. The residue was washed with two 100 ml portions of ether and taken up to 100 ml of acetone and evaporated to give a foam. The foam was washed with ethyl acetate (60 ml) and dissolved in 75 ml of i-PrOH, treated with charcoal, filtered and boiled down to 50 ml. The solution deposited 3.4 g of 1-(3,4-dimethoxybenzyl)-6-methyl-3, 4-dihydroisoquinoline hydrochloride after storing overnight at 4°. Dilution of the mother liquor with ethyl acetate and ether gave another 2.9 g to raise the yield to 6.3 g (48% based on one-half of crude product purified).
# PAF-induced edema = PAF-induced edema formation in rabbit skin; assay type: in vivo; conditions: for % Inhibition of PAF-induced edema: local intradermal, with PAF+PGE2, 30 minutes
# Procedure: PAF (10^-9 moles/site) was mixed with […] (a vasodilator, 3×10^-10 moles/site) and injected intradermally in 0.1 ml volumes with six replicates per sample. After 30 minutes a cardiac blood sample was taken and the plasma perpared. The animal was then killed, the dorsal skin removed and injection sites were punched out. Skin samples were counted in a counter together with plasma samples and the amount of plasma leakage in skin sites expressed in terms of 1 μl plasma by comparing the skin radioactivity with that in 1 μl plasma.
Structure (SMILES),inhibition at 30 µM [1],"inhibition at 30 µM ([2]; PAF-induced, rabbit platelets)","IC50 ([2]; PAF-induced, rabbit platelets)",inhibition at 30 µM [3],other results
"COc1ccc(C2=NCCc3cc(OCc4ccccc4)ccc32)cc1OC [Compound I2, 1-(3,4-Dimethoxyphenyl)-6-benzyloxy-3,4-dihydroisoquinoline]",10%,100%,12.5 µM,72%,
"COc1ccc(-c2nccc3ccccc23)cc1OC [Compound A3, 1-(3,4-dimethoxyphenyl) isoquinoline]",2%,80%,,38%,
"COc1ccc(Cc2nccc3cc(C)ccc23)cc1OC [Compound D3, 1-(3,4-Dimethoxybenzyl)-6-methylisoquinoline]",100%,100%,25 µM,57%,
"COc1ccc(CC2=NCCc3cc(C)ccc32)cc1OC [Compound D2, 1-(3,4-Dimethoxybenzyl)-6-methyl-3,4-dihydroisoquinoline]",23%,70%,5.6 µM,17%,Decomposition of free base in solution by tlc [4]: extensive decomposition
"COc1ccc(C2=NCCc3cc(C)ccc32)cc1 [Compound H2, 1-(4-Methoxyphenyl)-6-methyl-3,4-dihydroisoquinoline]",3%,100%,18 µM,25%,
"COc1cccc(C2=NCCc3cc(C)ccc32)c1 [Compound G2, 1-(3-Methoxyphenyl)-6-methyl-3,4-dihydroisoquinoline]",42%,100%,20 µM,14%,
COc1ccc(CCC2=NCCc3cc(C)ccc32)cc1OC [Compound E2],2%,92%,,70%,
"COc1ccc(C2=NCCc3cc(O)ccc32)cc1OC [Compound 12a, 1-(3,4-Dimethoxyphenyl)-6-hydroxy-3,4-dihydroisoquinoline]",90%,12%,,40%,
"COc1ccc(C2=NCCc3cc(C)ccc32)cc1OC [Compound C2, 1-(3,4-Dimethoxyphenyl)-6-methyl-3,4-dihydroisoquinoline]",10%,,,16%,inhibition at 30 µM ([2]; lot 2): 0%; inhibition at 30 µM ([2]; lots 1 & 3): 38%
"CCCCC[C@H](O)/C=C/[C@H]1[C@H](O)CC(=O)[C@@H]1C/C=C\CCCC(=O)O [PGE2, reference compound]",,,,,"Edema formation in rabbit skin (response to agent alone) (PAF-induced edema; intradermal, alone, compared with saline): not much greater than seen with saline"
"COc1ccc(C2=NCCc3ccccc32)cc1OC [Compound A2, 1-(3,4-Dimethoxyphenyl)-3,4-dihydroisoquinoline]",2%,48%,,7%,
"COc1ccc(Cc2nccc3cc(OCc4ccccn4)ccc23)cc1OC [Compound J3a, 1-(3,4-Dimethoxybenzyl)-6-(2-pyridylmethyloxy) isoquinoline]",12%,88%,0.8 µM,70%,% Inhibition of PAF-induced edema (PAF-induced edema; 10^-7 moles/site): 62%; % Inhibition of PAF-induced edema (PAF-induced edema; 10^-8 moles/site): 30%; % Inhibition of PAF-induced edema (PAF-induced edema; 10^-9 moles/site): -7%; % Inhibition of PAF-induced edema (PAF-induced edema; 10^-10 moles/site): 2%
"COc1cc(-c2nccc3cc(C)ccc23)cc(OC)c1OC [Compound F3, 1-(3,4,5-Trimethoxyphenyl)-6-methylisoquinoline]",87%,89%,,60%,
"COc1cc(C2=NCCc3cc(C)ccc32)cc(OC)c1OC [Compound F2, 1-(3,4,5-Trimethoxyphenyl)-6-methyl-3,4-dihydroisoquinoline]",26%,48%,,27%,
"COc1ccc(CCc2nccc3cc(C)ccc23)cc1OC [Compound E3, 1-[2-(3,4-Dimethoxyphenyl)ethyl]-6-methylisoquinoline]",9%,90%,,77%,
COc1ccc(C2=NCCc3cc(OCCN(C)C)ccc32)cc1OC [Compound 12b],2%,0%,,10%,
"COc1ccc(-c2nccc3cc(C)ccc23)cc1OC [Compound C3, 1-(3,4-dimethoxyphenyl)-6-methylisoquinoline]",30%,100%,,78%,"IC50 ([3]; Homo sapiens, read-out: PAF-Induced Neutrophil Degranulation I50): > 30 µM"
